These results are taken from US10729713B2, “Pharmaceutical composition for treating hepatitis, liver fibrosis, and liver cancer” (GUANGDONG PROVINCIAL HOSPITAL OF CHINESE MEDICINE, priority 2016, dated 2020).

One series relates to HBV. Briefly: Inhibition of HBV replication in HepG2.215 cells (HBsAg/HBeAg by ELISA, HBV gene by fluorescent quantitative PCR). Format: cell-based, Hepatitis B Virus. To be noted: for Expression of HBV gene / HBeAg / HBsAg: normalized, 100% for control group; for HBeAg / HBsAg: HepG2.215 supernatant, 48 h. On the procedure: The drug of Example 4 is used. The concentration of Adefovir Dipivoxil was 1 μmol, and the vinegar-baked bupleurum root polysaccharides are at a medium dosage in corresponding dosage, one-half of the medium dosage is a low dosage, and twice of the medium dosage is a high dosage.
The experiment is started with HepG2.215 cells that were grown to 80% confluence.
The cells were assigned to 5 groups, comprising a blank control group, a treatment group with Adefovir Dipivoxil, a treatment group with Adefovir Dipivoxil in combination with high dosage of vinegar-baked bupleurum root polysaccharides, a treatment group with Adefovir Dipivoxil in combination with medium dosage of vinegar-baked bupleurum root polysaccharides, and a treatment group with Adefovir Dipivoxil in combination with low dosage of vinegar-baked bupleurum root polysaccharides. Culturing for 48 h after administration, the supernatant is collected, the expression of the HBV gene is determined by fluorescent quantitative PCR, and the HBsAg and HBeAg concentrations are determined by ELISA.
The experiment is started with HepG2.215 cells that are grown to 80% confluence. The cells were assigned to 5 groups, comprising a blank control group, a treatment group with Tenofovir, a treatment group with Tenofovir in combination with high, medium, and low dosage of vinegar-baked bupleurum root polysaccharides. The concentration of Tenofovir is 0.8 μmol, the medium dosage of vinegar-baked bupleurum root polysaccharides is a corresponding dosage in Example 7, one-half of which is the low dosage, and twice of which is the high dosage. Culturing for 48 h after administration, the supernatant is collected, the expression of the HBV gene is determined by fluorescent quantitative PCR, and the HBsAg and HBeAg concentrations are determined by ELISA.
For orientation: An ELISA detects its analyte on a solid surface through an enzyme-linked reagent.

Series [1] concerns duck hepatitis B virus (DHBV). Briefly: Effect against duck hepatitis B virus in DHBV-infected ducklings. It counts as in vivo. To be noted: DHBV-infected ducks; Telbivudine 80 mg·kg^−1 alone, gastric perfusion twice a day, 10 days; 100% for control group.
The conditions of series [2]: drug modified with monophosphorylation, compared with the control group; cited from earlier work.
Series [3] is described as follows: Plasma and tissue distribution of Lamivudine in rats, liquid chromatography. Format: in vivo, rat. The following applies: Lamivudine 15 mg/kg, n = 6. How it is done: The pharmaceutical composition of the present invention enhances the Lamivudine level in the rat liver. Grouping of the test animals and administration are the same as the Example 1 (except that the drug used is the same as Example 3). The dosage of Lamivudine is 15 mg/kg, and the bupleurum root polysaccharides are at a corresponding dosage. The Lamivudine content was determined by liquid chromatography. 0.1 mL of plasma is added with 10 μL of 0.2 mol ammonium acetate, and then with 1 mL of acetonitrile, vortexed, and centrifuged. The supernatant is collected and injected for determination. 0.1 g of the tissue sample is added with 1 mL of physiological saline, homogenized, and treated following the same method as for the plasma sample. The Lamivudine contents in the plasma and tissue sample are determined.

Series [4] can be described thus: In vivo distribution of Entecavir in mice. To be noted: Entecavir 0.1 mg/kg, 5 consecutive days, combination with high dosage of polysaccharides (as Example 5), n = 6. On the procedure:
The bupleurum root polysaccharides enhance the distribution of Entecavir in liver, and reduce its distribution in other tissues.
The drug of Example 5 is used.
20 male mice are fasted for one night, but free accessed to water before the experiment. The animals are divided into three groups according to body weight, including a treatment group with Entecavir, and treatment groups with bupleurum root polysaccharides combined with Entecavir. The animals are administered for 5 consecutive days. The dosage of Entecavir is 0.1 mg/kg, and the corresponding dosage of bupleurum root polysaccharides in Example 5 is a high dosage, one-half of which is a low dosage. The animals are sacrificed after the last administration and the blood, heart, liver, spleen, lung, kidney, intestine, stomach, bone marrow, and brain are taken. 100 μL of plasma is directly precipitated by adding 800 μL of acetonitrile, and the supernatant is frozen and centrifuged. 500 μL of the supernatant is blow dried with nitrogen, and 100 μL of the mobile phase is added for reconstitution, and injected for analysis. 0.1 g of the tissue is added with 1 mL of water and homogenized. The homogenate is treated following the treatment method for the plasma.
Effect of bupleurum root polysaccharides on in vivo distribution of Entecavir (ng/mL)

The nature of series [5]: Tissue distribution of oxymatrine (OM) and its metabolite matrine (M) in rats, LC-MS. The following applies: po, OM 54 mg/kg single administration, sampled at 20, 60, 240 min, n = 6. Format: in vivo, rat. How it is done:
The pharmaceutical composition of the present invention enhances the distribution of oxymatrine (OM) in the rat liver. 36 rats are acclimated for 7 days, and randomized into a treatment group with oxymatrine (OM) alone, and a treatment group with a combined drug of the present invention (drug in Example 1). Wherein, the dosage of oxymatrine (OM) is 54 mg/kg, and the bupleurum root polysaccharides are used at a corresponding dosage in Example 1. After a single administration, blood is sampled from the abdominal aorta respectively at 20 min, 60 min, and 240 min. The rat is sacrificed, from which the liver, spleen, lung, kidney, and heart are removed. […] The concentrations of oxymatrine (OM) and its metabolite (M) are determined by LC-MS, the content in the tissue and the area under the curve are calculated.

The mark [6] stands for this setting: HepG2.215, 48 h, text summary of Table 4.
The mark [7] stands for this setting: Adefovir Dipivoxil 1 μmol alone.

Take `C[C@H](Cn1cnc2c(N)ncnc21)OCP(=O)(O)O` [Tenofovir]: the “Expression of HBV gene” value with HBV (HepG2.215, 48 h, Tenofovir 0.8 μmol alone) was found to be 45.2 ± 5.3%. For the same compound, in the series on HBV (Tenofovir 0.8 μmol alone), the HBeAg is on record as 39.8 ± 2.4% and the HBsAg is on record as 33.2 ± 1.2%.
Consider `Cc1cn([C@@H]2C[C@@H](O)[C@H](CO)O2)c(=O)[nH]c1=O` [Telbivudine], for which, in series [1], the “Expression of HBV gene” value is 50.5 ± 5.3%, the HBeAg is 37.2 ± 3.4% and the HBsAg was found to be 30 ± 1.3%.
As to `Nc1ccn([C@@H]2CS[C@H](CO)O2)c(=O)n1` [Lamivudine], the “increase of AUC” value in series [2] was 11.2 times. In series [2], the “increase of the concentration of Lamivudine in the liver” value is 7.7 times. In addition, the AUC (as a rule, concentration integrated over time) in series [3] (rat heart, read-out: AUC of Lamivudine, Heart) turned out to be 26.8 ng·h/mL; in series [3] (rat kidney, read-out: AUC of Lamivudine, Kidney) it was 24.3 ng·h/mL; in series [3] (rat liver, read-out: AUC of Lamivudine, Liver) it was 27.3 ng·h/mL; in series [3] (rat lung, read-out: AUC of Lamivudine, Lung), 23.1 ng·h/mL; in series [3] (rat plasma, read-out: AUC of Lamivudine, Plasma), 25.4 ng·h/mL; in series [3] (rat spleen, read-out: AUC of Lamivudine, Spleen), 30.2 ng·h/mL. Besides, the AUC in series [3] (rat stomach, read-out: AUC of Lamivudine, Stomach) amounted to 28.8 ng·h/mL.
As to `C=C1[C@H](CO)[C@@H](O)C[C@@H]1n1cnc2c(=O)[nH]c(N)nc21` [Entecavir], in series [4] (mouse bone marrow), the “Entecavir concentration, Marrow” value turned out to be 18.9 ng/L. Moreover, the “Entecavir concentration, Heart” value in series [4] (mouse heart) amounted to 26.14 ng/L. Also, the “Entecavir concentration, Instine” value in series [4] (mouse intestine) was 24.3 ng/L. Also, the “Entecavir concentration, Kidney” value in series [4] (mouse kidney) worked out at 27.5 ng/L. In series [4] (mouse liver), the “Entecavir concentration, Liver” value was 26.8 ng/L. The “Entecavir concentration, Lung” value in series [4] (mouse lung) is 26.3 ng/L. Besides, the “Entecavir concentration, Plasma” value in series [4] (mouse plasma) was 30.6 ng/L. The “Entecavir concentration, Spleen” value in series [4] (mouse spleen) is on record as 28.4 ng/L. In series [4] (mouse stomach), the “Entecavir concentration, Stomach” value turned out to be 25.6 ng/L.
`CC(C)(C)C(=O)OCOP(=O)(COCCn1cnc2c(N)ncnc21)OCOC(=O)C(C)(C)C` [Adefovir Dipivoxil]: the “Expression of HBV gene” value in the series with HBV (HepG2.215, 48 h, Adefovir Dipivoxil 1 μmol alone) stood at 50 ± 5.3%. In addition, in the series on HBV (setting [6]), the “inhibition rate for gene expression” value amounted to 50% and the “inhibition rate on the replication of HBV (HBsAg, HBeAg)” value is 60-65%. Moreover, in the series with HBV (setting [7]), the HBeAg turned out to be 40 ± 3.4% and the HBsAg amounted to 35 ± 1.2%.
On to `O=C1CCC[C@@H]2[C@H]3CCC[N+]4([O-])CCC[C@@H](CN12)[C@@H]34` (some centres unmarked) [OM, oxymatrine], for which the AUC came to 125 ng·h/mL in series [5] (rat heart, read-out: AUC of oxymatrine, Heart); 69.7 ng·h/mL in series [5] (rat kidney, read-out: AUC of oxymatrine, Kidney); 125 ng·h/mL in series [5] (rat liver, read-out: AUC of oxymatrine, Liver); 366 ng·h/mL in series [5] (rat lung, read-out: AUC of oxymatrine, Lung); 520 ng·h/mL in series [5] (rat plasma, read-out: AUC of oxymatrine, Plasma); 64.9 ng·h/mL in series [5] (rat spleen, read-out: AUC of oxymatrine, Spleen).
